{"source": "patent US10131691B2", "about": "“Compositions and methods for specific regulation of pyruvate dehydrogenase kinase” (THE BOARD OF TRUSTEES OF THE LELAND STANFORD JUNIOR …, priority 2011, dated 2018)", "key": {"Drp1": {"system": "Drp1", "assay": "Drp1 phosphorylation in hearts subjected to I/R", "design": "species or system rat", "method": "(§1) An ex vivo model of acute ischemic heart damage was used, which involves a 30 min equilibration period, followed by 30 min of global ischemia, which in turn is followed by 60 min of reperfusion. The hearts were perfused with 1 μM TAT or TAT-conjugated peptide. Normoxic control hearts were subjected to 90 min perfusion in the absence of ischemia. Coronary effluent was collected to determine creatine phosphokinase (CPK) release during the first 30 min of the reperfusion period. At the end of the reperfusion period, hearts were sliced into 1-mm-thick transverse sections and incubated in triphenyltetrazolium chloride solution (TTC, 1% in phosphate buffer, pH 7.4) at 37° C. for 15 min. Infarct size was expressed as a percentage of the risk zone (equivalent to total LV muscle mass) (methods described in Brandman et al., 2007, J. Biol. Chem., 282:4113-4123; Inagaki et al., 2003, Circulation, 108:869-875)."}, "PDK2": {"system": "PDK2", "assay": "2-D IEF phosphorylation of PDK2 in hearts after I/R", "design": "species or system rat", "conditions": "cardiac I/R", "method": "as §1, with “108:869-875). […]” for “108:869-875).”\nAs described above, δPKC phosphorylation of PDK following cardiac ischemia and reperfusion leads to the phosphorylation and a decline in the activity of pyruvate dehydrogenase (PDH) (Churchill et al., 2005, Circ. Res., 97:78-85). […] Since ΨPDK is derived from the PDK homologous sequence in δPKC, it was next determined whether PDK phosphorylation is affected by ΨPDK treatment."}, "δPKC": {"target": "T1, δPKC (Homo sapiens, UniProt Q05655)", "T1 construct": "purchased Invitrogen", "T1 sequence (Q05655 whole entry)": "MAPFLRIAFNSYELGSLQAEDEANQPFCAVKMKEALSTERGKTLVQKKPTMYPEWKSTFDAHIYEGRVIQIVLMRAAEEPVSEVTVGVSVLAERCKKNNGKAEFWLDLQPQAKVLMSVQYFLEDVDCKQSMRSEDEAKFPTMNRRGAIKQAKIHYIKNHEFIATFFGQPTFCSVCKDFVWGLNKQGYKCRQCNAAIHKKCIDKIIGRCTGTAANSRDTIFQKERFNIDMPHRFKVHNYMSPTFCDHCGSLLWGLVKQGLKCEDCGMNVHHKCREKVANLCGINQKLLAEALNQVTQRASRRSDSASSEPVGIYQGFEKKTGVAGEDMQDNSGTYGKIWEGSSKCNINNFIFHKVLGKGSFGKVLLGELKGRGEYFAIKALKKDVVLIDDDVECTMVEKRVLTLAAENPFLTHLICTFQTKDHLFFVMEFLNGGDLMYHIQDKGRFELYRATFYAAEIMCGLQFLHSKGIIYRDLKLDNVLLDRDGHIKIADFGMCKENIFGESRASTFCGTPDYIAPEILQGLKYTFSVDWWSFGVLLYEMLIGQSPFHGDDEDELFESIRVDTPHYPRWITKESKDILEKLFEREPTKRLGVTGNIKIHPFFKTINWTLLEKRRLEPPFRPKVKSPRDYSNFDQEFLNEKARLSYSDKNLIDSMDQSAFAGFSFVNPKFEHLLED", "assay": "Proteinase K sensitivity of recombinant δPKC", "assay_type": "binding", "conditions": "non-TAT conjugated peptide; vs no peptide or control peptide ΨδRACK", "method": "Human recombinant δPKC (Invitrogen, Calif., USA; 50 ng; 0.625 pmole) was incubated with ΨPDK (non-TAT conjugated, 1 nmole) prior to addition of proteinase K (0.05 μg/ml) in 20 mM Tris-HCl, pH 7.4 containing 1 μM DTT. The reaction was stopped as indicated by adding 5 mM PMSF.\n(§2) Since ΨPDK is derived from a PDK-like sequence in δPKC (FIG. 1B), it was reasoned that this peptide should act as a competitive inhibitor, selective for δPKC phosphorylation of PDK. To test this hypothesis directly, an in vitro kinase assay in which the ability of δPKC to phosphorylate PDK is determined was used."}, "[1]": {"target": "T2, δPKC phosphorylation of PDK (Homo sapiens, UniProt Q05655)", "T2 construct": "purchased Invitrogen (δPKC); Abnova (PDK2)", "T2 sequence (Q05655 whole entry)": "as above", "assay": "In vitro kinase assay: δPKC phosphorylation of PDK2", "assay_type": "biochemical", "conditions": "recombinant δPKC and PDK2", "method": "(§3) In vitro phosphorylation assay. To determine the level of PDK and Drp1 phosphorylation in presence of ΨPDK, δPKC recombinant protein (Invitrogen, Calif., USA; 200 ng) was incubated with or without peptides for 10 min, then 100 ng recombinant PDK2 (Abnova, Taiwan) or Drp1 (Abnova, Taiwan) were added for 20 min at 37° C. in 40 μl of kinase buffer (20 mM Tris-HCl, 20 mM MgCl2, 1 μM DTT, 25 μM ATP, 1 mM CaCl2) containing 5 μCi [γ^32P] ATP (4500 Ci/mmol, ICN) in the presence of the low amount of PKC activators, phosphatidylserine (PS, 1.25 μg) and 1,2 dioleoyl sn-glycerol (DG, 0.04 μg). The kinase assay was terminated by adding loading Laemmli buffer containing 5% SDS and the samples were loaded on a 10% PAGE-SDS polyacrylamide gel, and the levels of phosphorylated PDK2 protein were determined by exposing the nitrocellulose to autoradiography. The nitrocellulose was also reprobed using respective antibodies for loading controls.\nas §2"}, "[2]": {"target": "T3, δPKC phosphorylation of Drp1 (Homo sapiens, UniProt Q05655)", "T3 construct": "purchased Invitrogen", "T3 sequence (Q05655 whole entry)": "as above", "assay": "In vitro kinase assay: δPKC phosphorylation of Drp1", "assay_type": "biochemical", "method": "as §3, §2"}, "hearts subjected to I/R": {"system": "hearts subjected to I/R", "assay": "Ex vivo cardiac protection from ischemia/reperfusion (Langendorff; infarct size, CPK release)", "design": "species or system rat", "method": "as §1, with “108:869-875). […]” for “108:869-875).”\nFirst, I/R-induced infarct size after treatment with ΨPDK or δV1-1 (Inagaki et al., 2003, Circulation, 108:869-875), was smaller than that in hearts treated with the control peptide or with ΨδRACK, the δPKC-specific activator or with δV1-5 (FIG. 6A). Second, similar data were obtained when determining the levels of released creatine phosphokinase (CPK), as a marker of myocardial infarction; CPK levels in the ΨPDK- or δV1-1-treated hearts were similar and were lower than those after treatment with control peptide, ΨδRACK or δV1-5 (FIG. 6B).\nTo begin determining the contribution of each of the amino acids on the effect of the peptide, Alanine scanning was used (Brunel et al., 2006, J. Virol., 80:1680-1687; Chen et al., J. Pep. Res., 2000, 56:147-156; Brems et al., 1992, Prot. Eng., 5:527-533) (substituting individual amino acid with an alanine). The resultant ΨPDK peptide analogs were then used in the same model of myocardial infarction, using CPK release and JNK phosphorylation as markers for cardiac injury. CPI release into the perfusates and pJNK in the hearts were determined after I/R in the presence of respective peptides and compared to the levels in hearts subjected to I/R in the presence of the control peptide. None of the peptides having a substitution had any significant biological activity (Table 1)."}, "[3]": {"conditions": "ex vivo I/R, vs control peptide, ΨδRACK or δV1-5"}}, "note": "No end group written: not given here."}
{"substance": "ALSTER (not fully specified (C-terminus); also: TAT47-57 conjugated via disulfide) [ΨPDK, for cells and hearts conjugated to TAT47-57 via disulfide bond]", "values": [{"measurement": "Drp1 phosphorylation", "setting": "Drp1", "result": "caused an increase of Drp1 phosphorylation"}, {"measurement": "phosphorylation of PDK2", "setting": "PDK2", "result": "did not occur"}, {"measurement": "stability of δPKC to proteinase K digestion", "setting": "δPKC", "result": "more stable to PK digestion"}, {"measurement": "inhibition of δPKC phosphorylation of PDK", "setting": "[1]", "result": "~30", "unit": "%"}, {"measurement": "Drp1 phosphorylation by δPKC", "setting": "[2]", "result": "did not affect Drp1 phosphorylation"}, {"measurement": "cardioprotection / biological activity in ex vivo I/R model (in words)", "setting": "hearts subjected to I/R; CPK release and JNK phosphorylation as markers", "result": "exert cardio-protective effects"}, {"measurement": "CPK (u/L)", "setting": "hearts subjected to I/R; ex vivo I/R, release into perfusate, 1 μM peptide", "result": "335 ± 520", "unit": "u/L"}, {"measurement": "CPK levels (in words)", "setting": "hearts subjected to I/R; [3]", "result": "lower"}, {"measurement": "I/R-induced infarct size", "setting": "hearts subjected to I/R; [3]", "result": "smaller"}]}
